{
  "source": "the supplement of paper PMC11208160",
  "data": [
    {"test": "recombinant barcode read abundance after kanamycin selection (control-corrected) (log10(CPM+1)); higher = more efficient recombination; sequences stand for … in AGTGCAGAGAAAATCGGCCAGTTTTCTCTGCCTGCAGTCCGCATGCCGT…AGATTTATGCAGCGGACTGCCTTTCTCCCAAAGTGATAAACCGGACAGTATCATGGACCGGTTTTCCCGGTAATCCGTATTTGCAAGGTTGGTTTCACT; site = the 11-nt target", "method_in_brief": "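Two replicates per condition were plated: chloramphenicol/ampicillin LB agar for the control, and chloramphenicol/ampicillin/kanamycin with 0.1 mM IPTG for selection. The pooled E. coli screen behind them paired targets with IS621 bridge RNA target-binding loops. Recombination efficiency is expressed from averaged, control-corrected barcode counts per million at recombinant junctions, as log10(CPM+1).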", "values": [
      {"sequence": "GACCGTGCTTGGGTTCTAACCTGTTGCCT (site GACCGCGCTAG)", "recombinant barcode read abundance (log10)": 0.103},
      {"sequence": "GACCGTGCTTGGGTTCTAACCTGTTGCCT (site GACCGGGCTAG)", "recombinant barcode read abundance (log10)": 0.268},
      {"sequence": "GACCGTGCTTGGGTTCTAACCTGTTGCCT (site GACCGTGCTAG)", "recombinant barcode read abundance (log10)": 1.38},
      {"sequence": "GACCTACCTTGGGTTCTAACCTGTTGCAG (site GACCTACCTCT)", "recombinant barcode read abundance (log10)": 2.18},
      {"sequence": "GACCTACCTTGGGTTCTAACCTGTTGCAG (site GACCTCCCTCA)", "recombinant barcode read abundance (log10)": 0.136},
      {"sequence": "GACCTATCTTGGGTTCTAACCTGTTGCCT (site GACCTATCTAG)", "recombinant barcode read abundance (log10)": 1.39},
      {"sequence": "GACCTATCTTGGGTTCTAACCTGTTGCCT (site TGTGCTACTGT)", "recombinant barcode read abundance (log10)": 0.213},
      {"sequence": "GACCTCCCTTGGGTTCTAACCTGTTGCTG (site GACCTACCTCT)", "recombinant barcode read abundance (log10)": 0.219},
      {"sequence": "GACCTCCCTTGGGTTCTAACCTGTTGCTG (site GACCTCCCTCA)", "recombinant barcode read abundance (log10)": 2.16},
      {"sequence": "GACGCTTCTTGGGTTCTAACCTGTTGCAT (site GACGCAACTAT)", "recombinant barcode read abundance (log10)": 1},
      {"sequence": "GACGCTTCTTGGGTTCTAACCTGTTGCAT (site GACGCTTCTAT)", "recombinant barcode read abundance (log10)": 0.254},
      {"sequence": "GACGTAACTTGGGTTCTAACCTGTTGCAG (site AGGAAGGCTTG)", "recombinant barcode read abundance (log10)": 0.459},
      {"sequence": "GACGTAACTTGGGTTCTAACCTGTTGCAG (site GACGTAACTCT)", "recombinant barcode read abundance (log10)": 1.15},
      {"sequence": "GACGTAACTTGGGTTCTAACCTGTTGCCT (site GAAGTAACTAG)", "recombinant barcode read abundance (log10)": 0.0422},
      {"sequence": "GACGTAACTTGGGTTCTAACCTGTTGCCT (site GACGTAACTAG)", "recombinant barcode read abundance (log10)": 0.508},
      {"sequence": "GACGTAACTTGGGTTCTAACCTGTTGCCT (site GAGGTAACTAG)", "recombinant barcode read abundance (log10)": 0.0292},
      {"sequence": "GACGTAACTTGGGTTCTAACCTGTTGCCT (site GATGTAACTAG)", "recombinant barcode read abundance (log10)": 0.163},
      {"sequence": "GACTAGTCTTGGGTTCTAACCTGTTGCAG (site CGGGGCCCTAA)", "recombinant barcode read abundance (log10)": 0.156},
      {"sequence": "GACTAGTCTTGGGTTCTAACCTGTTGCAG (site GACTAGTCTCT)", "recombinant barcode read abundance (log10)": 2.22},
      {"sequence": "GACTATCCTTGGGTTCTAACCTGTTGCCG (site ACTATGACTAA)", "recombinant barcode read abundance (log10)": 0.0127},
      {"sequence": "GACTATCCTTGGGTTCTAACCTGTTGCCG (site GACTATCCTCG)", "recombinant barcode read abundance (log10)": 0.739},
      {"sequence": "GACTATGCTTGGGTTCTAACCTGTTGCCT (site GACTATGCTAG)", "recombinant barcode read abundance (log10)": 0.461},
      {"sequence": "GACTATGCTTGGGTTCTAACCTGTTGCCT (site GCCTATGCTAG)", "recombinant barcode read abundance (log10)": 0.291},
      {"sequence": "GACTATGCTTGGGTTCTAACCTGTTGCCT (site GGCTATGCTAG)", "recombinant barcode read abundance (log10)": 0.0633},
      {"sequence": "GACTATGCTTGGGTTCTAACCTGTTGCCT (site GTCTATGCTAG)", "recombinant barcode read abundance (log10)": 0.00989},
      {"sequence": "GACTATTCTTGGGTTCTAACCTGTTGCCT (site GAATATTCTAG)", "recombinant barcode read abundance (log10)": 0.0378},
      {"sequence": "GACTATTCTTGGGTTCTAACCTGTTGCCT (site GACTATTCTAG)", "recombinant barcode read abundance (log10)": 0.212},
      {"sequence": "GACTATTCTTGGGTTCTAACCTGTTGCCT (site GAGTATTCTAG)", "recombinant barcode read abundance (log10)": 0.106},
      {"sequence": "GACTATTCTTGGGTTCTAACCTGTTGCCT (site GATTATTCTAG)", "recombinant barcode read abundance (log10)": 0.178},
      {"sequence": "GACTCTACTTGGGTTCTAACCTGTTGCTT (site GAATCTACTAA)", "recombinant barcode read abundance (log10)": 0.0131},
      {"sequence": "GACTCTACTTGGGTTCTAACCTGTTGCTT (site GACTCTACTAA)", "recombinant barcode read abundance (log10)": 0.65},
      {"sequence": "GACTCTACTTGGGTTCTAACCTGTTGCTT (site GAGTCTACTAA)", "recombinant barcode read abundance (log10)": 0.068}
    ]}
  ]
}
